# Reference: US6953786B2, “Compositions comprising plant-derived polyphenolic compounds and inhibitors of reactive oxygen species and methods of using thereof” (The Regents of the University of California, priority 2002, dated 2005)
# “Also recorded” adds a separate entry of the source.
# Key:
# Mia PACA-2 cells [1] = experiment: Intracellular ROS (H2O2) by flow cytometry of DCF-labeled cells; format: cell-based, human; conditions: Mia PACA-2, 72 hours, serum or IGF-1; trans-resveratrol 100 μM, genistein 100 μM, DPI 15 μM, tiron 10 mM
# Experimental: To determine the effect of serum in cancer cells, the following assay was conducted. Mia PACA-2 pancreatic cancer cells were cultured for 72 hours in the absence and presence of serum (15% FBS) or 100 ng/ml insulin growth factor-1 (IGF-1). Dichloroflyorescein diocetate (DCF-DA) was used to label the cells. Intracellular H2O2 was measured by flow cytometry of DCF-labeled cells. Intracellular ROS was measured using oxidation-sensitive cell-permeable fluorescent probe, dichlorofluorescein diacetate (DCF-DA) to measure H2O2. See Royall J A, and Ischiropoulos H. (1993) Arch. Biochem. Biophys. 302:348-355. To measure ROS, cells were collected after incubation, washed with PBS, and incubated for 15 minutes with […] DCF-DA. Samples were analyzed by flow cytometry. The amount of DCF-DA fluorescence correlated with the amount of ROS in the cells To determine the effects of serum, IGF-1, polyphenols and inhibitors of ROS on ROS production in cancer cells, the following assay was conducted. Mia PACA-2 cells were cultured for 72 hours in the presence of serum or IGF-1 with or without antioxidants, intracellular superoxide scavenger tiron (10 mM) or NADPH oxidase inhibitor, diphenylene iodonium (DPI, 15 μM) and trans-resveratrol (100 μM), genistein (100 μM), or a combination of polyphenolic compounds and antioxidants. Intracellular H2O2 was measured by flow cytometry of DCF-labeled cells. Mia PACA-2 cells and BSp73AS cells were cultured in Dulbecco's Modified Eagle's Medium supplemented with 10% heat inactivated FBS, penicillin G (100 U/ml) and streptomycin ([…]) in a humidified atmosphere comprising 5% (v/v) CO2. When the cells were 90% confluent they were detached, washed with alternating centrifugation and resuspension, plated and incubated in the same media with or without FBS or IGF-1 and with or without a given polyphenolic compound and with or without a given ROS inhibitor.
# [2] = tested on: BSp73AS and Mia PACA-2 cells; experiment: Caspase-3 activity and annexin staining with MG-132 (FIG. 14C); format: cell-based; conditions: polyphenols 100 μM, MG-132 20 μM
# Akt/PKB = Akt/PKB phosphorylation (Western blot); format: cell-based, human; conditions: Mia PACA-2, 72 hours, with serum; genistein 100 μM, LY294002 50 μM
# Experimental: To determine whether phosphatidylinositol 3-kinase (PI 3-kinase) and Akt/PKB mediate the effects of serum on NF-κB activation and that the effects of polyphenolic compounds on NF-κB activation are due to an ability to inhibit PI 3-kinase, the following assays were conducted. Specifically, to determine the effects of serum, LY294002, a PI 3-kinase inhibitor, and genistein on Akt/PKB phosphorylation, Mia PACA-2 cells were cultured for 72 hours in the absence or presence of serum with or without 100 μM genistein (GN) or 50 μM LY294002. Western blots were performed on whole cell lysates as described above except that specific antibodies against phosphorylated and total Akt/PKB were used (Akt/PKB is Anti-pS473 AktpAB from Promega, Madison Wis. and total Akt is Akt ½ from Santa Cruz, Santa Cruz, Calif.). The membranes were then stripped and re-probed with an antibody against total Akt .
# Mia PACA-2 cells [3] = experiment: Annexin staining (flow cytometry); format: cell-based, human; conditions: Mia PACA-2, 72 hours, 0-100 μM, no serum
# Experimental: BSp73AS cells are derived from a rat pancreatic carcinoma and both Mia PACA-2 and BSp73AS cells have mutated p53 and express K-ras. Human pancreatic carcinoma cell line Mia PACA-2 and rat pancreatic carcinoma BSp73AS were cultured in Dulbecco's Modified Eagle's Medium supplemented with 10% heat inactivated FBS, penicillin G (100 U/ml) and streptomycin ([…]) in a humidified atmosphere comprising 5% (v/v) CO2. When cells were 90% confluent they were detached, washed with alternating centrifugation and resuspension, plated and incubated in the same media without FBS and with the indicated concentrations of polyphenolic compounds or vehicle for up to 96 hours. Oligonucleotide DNA fragmentation, annexin staining, and PARP proteolysis assays were conducted as follows:
# Mia PACA-2 cells were cultured for 72 hours in the presence of 0, 12, 24, 50, and 100 μM rutin, quercetin, or trans-resveratrol. About 1×10^6 cells as determined with a hemocytometer were analyzed for annexin-V binding using an Annexin V-FLUOS Staining Kit (Boehringer Mannheim, Germany). […] Cells were analyzed on a FACScan flow cytometer (Becton Dickinson Immunocytometry System, San Jose, Calif.) equipped with a […] air-cooled 488 nm argon-ion laser. […]
# caspase-3 [4] = experiment: Caspase-3 processing (Western blot); format: cell-based, human
# Experimental: (§1) In order to determine the effect polyphenolic compounds have on caspase-3 activity, the following assay was conducted. BSp73AS cells were culture in the absence of serum or growth factors for 24 hours in 0, 10, 20, and 50 μM of trans-resveratrol and Mia PACA-2 -cells were cultured for 72 hours in the presences of 0, 10, 20, and 50 μM of tran-resveratrol. Cell lysates were then prepared and 50 μg protein aliquots were loaded per lane and blotted with rabbit polyclonal antibody against caspase-3 (Santa Cruz Biotechnology, Santa Cruz, Calif.). The experiment was repeated 3 times with similar results.
# caspase-3 [5] = experiment: Caspase-3 processing (Western blot); format: cell-based, rat; conditions: BSp73AS
# Experimental: as §1
SMILES,"ROS production (intracellular H2O2, DCF fluorescence) (Mia PACA-2 cells [1])",apoptosis (annexin staining) [2],serum-induced Akt/PKB phosphorylation/activation (Akt/PKB),annexin staining (apoptosis) (Mia PACA-2 cells [3]),"lowest concentration with effect on caspase-3 conversion (caspase-3 [4]; Mia PACA-2, 72 hours (FIG. 7A))","conversion of caspase-3 from inactive to active form (caspase-3 [4]; Mia PACA-2, 72 hours, 0-50 μM (FIG. 7A))",lowest concentration with effect on caspase-3 conversion (caspase-3 [5]; 24 hours (FIG. 6A)),"conversion of caspase-3 from inactive to active form (caspase-3 [5]; 24 hours, no serum, 0-50 μM (FIG. 6A))"
O=c1c(-c2ccc(O)cc2)coc2cc(O)cc(O)c12 [genistein],small increase in ROS production,causes significant apoptosis,attenuated serum-induced Akt phosphorylation/activation,,,,,
O=c1c(O)c(-c2ccc(O)c(O)c2)oc2cc(O)cc(O)c12 [quercetin],,,,increase annexin staining; also recorded: more potent in causing apoptosis than trans-resveratrol,20 µM,convert caspase-3 from its inactive form (32 kDa doublet) to its active form (17 kDa),,
Oc1ccc(/C=C/c2cc(O)cc(O)c2)cc1 [trans-resveratrol],small increase in ROS production,,,increase annexin staining,,,20 µM,convert caspase-3 from its inactive form (32 kDa doublet) to its active form (17 kDa)
